In PubChem BioAssay (NCI):
Values joined by “and” are separate entries in the source; they are usually repeats but may differ in a detail not shown here. Equal values may be shown once.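 How tested: cells in 96-well plates exposed to compound for 48 hours at five concentrations. GI50 = concentration required for 50% inhibition of growth. At the TGI there is no net growth.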

Legend:
Test in all cases: inhibition of tumour cell growth, NCI panel, 48 h
[1] = test system: DLD-1 colon
[2] = test system: DMS 273 small cell lung
[3] = test system: KM20L2 colon
[4] = test system: M19-MEL melanoma
[5] = test system: RXF-631 renal
[6] = test system: XF 498 CNS
[7] = test system: MDA-N
[8] = test system: DMS 114 small cell lung
[9] = test system: HOP-18 NSCLC

`C1=CC=C2NCCCCCCCNC3=CC=CC=CC3=NCCCCCCCN=C2C=C1` was tested, and the TGI [1] was > 100 µM, the TGI [2] was 39.9 µM and the TGI [3] was > 100 µM. For the same compound, the TGI [4] was > 100 µM, the TGI [5] was 25.7 µM and the TGI [6] was > 100 µM.

`N#CCCN(CCCN(CCCN(C(=O)Nc1ccccc1)c1ccccc1)C(=O)Nc1ccccc1)C(=O)Nc1ccccc1` was tested, and the GI50 [7] was > 100 µM and the TGI [7] was > 100 µM.

In the case of `O=C(O/C(=C(/N=Nc1ccccc1)c1ccccc1)c1ccccc1)c1ccccc1`, the TGI [1] was > 100 µM, the TGI [8] was > 100 µM and the TGI [9] was > 100 µM. The TGI [3] was > 100 µM, the TGI [5] was > 100 µM and the TGI [6] was > 100 µM.

With `O=c1[nH]nc2ccccc2c1Cc1ccccc1` the TGI [1] was > 100 µM, the TGI [8] was > 100 µM and the TGI [2] was > 100 µM. The TGI [9] was > 100 µM, the TGI [3] was > 100 µM and the TGI [4] was > 100 µM. The TGI [6] was > 100 µM.

In the case of `O=CN/C=C/c1cccc(O)c1`, the TGI [1] was > 100 µM, the TGI [8] was > 100 µM and the TGI [2] was > 100 µM. For the same compound, the TGI [9] was > 100 µM, the TGI [3] was > 100 µM and the TGI [4] was > 100 µM. The TGI [7] was > 85 µM and the TGI [6] was > 100 µM.

`CC(C)CCCC(C)[C@H]1CCC2[C@@H]3CCC4Nc5nocc5C[C@]4(C)C3CC[C@@]21C` (stereo partly drawn) gave a TGI [1] of 41 µM, a TGI [2] of 37.3 µM and a TGI [9] of 34.7 µM. The TGI [3] was 41.7 µM and the TGI [4] was 33.7 µM.

`COc1cccc2c1C(=O)c1c(O)c3c(c(O)c1C2=O)CC(O)(C(O)CO)CC3OC1CC(N2CCOCC2)C(O)C(C)O1` (stereo not drawn) was tested, and the GI50 [8] was < 0.001 µM, the TGI [2] was 0.0109 µM and 0.0429 µM and the TGI [9] was 0.00797 µM. For the same compound, the TGI [3] was 0.0943 µM, the GI50 [4] was < 0.001 µM and the TGI [7] was 0.1 µM. For the same compound, the TGI [6] was 0.0478 µM.

For `COCC(O)Cn1ccnc1[N+](=O)[O-]` (stereo not drawn), the TGI [8] was > 100 µM, the TGI [2] was > 100 µM and the TGI [3] was > 100 µM. The TGI [4] was > 100 µM and the TGI [6] was > 100 µM.

With `O=C(O)c1cc2ccc3ccccc3c2oc1=O` the TGI [7] was > 100 µM.

For `OCC1C(/C=C/c2ccoc2)ON2CCCC12` (stereo not drawn), the TGI [1] was > 100 µM, the TGI [2] was > 100 µM and the TGI [9] was 86 µM. The TGI [3] was > 100 µM, the TGI [4] was > 100 µM and the TGI [6] was > 100 µM.

`CC1CC2OC(=O)C(C)C2CC2(C)C(OC3OC(CO)C(O)C(O)C3O)OCCC12` (stereo not drawn) was tested, and the TGI [7] was > 100 µM.

`COC(=O)c1ccccc1OCc1cc(=O)oc2ccc(C)cc12` was tested, and the TGI [1] was > 100 µM, the TGI [8] was > 100 µM and the TGI [2] was > 100 µM. The TGI [3] was > 100 µM, the TGI [4] was > 100 µM and the TGI [7] was > 100 µM. For the same compound, the TGI [5] was > 100 µM and the TGI [6] was 90.4 µM.

`C[C@]12CCC(=O)C=C1CC[C@@H]1C2CC[C@]2(C)Nc3c(cnn3-c3ccccc3)CC12` (stereo partly drawn) was tested, and the TGI [1] was > 100 µM, the TGI [8] was > 100 µM and the TGI [2] was > 100 µM. The TGI [3] was > 100 µM, the TGI [4] was > 100 µM and the TGI [5] was > 100 µM. The TGI [6] was > 100 µM.

In the case of `C=CCNC(=O)N(CCCC(NC(C)=O)C(=O)NCc1ccccc1)Cc1ccccc1` (stereo not drawn), the TGI [8] was > 100 µM, the TGI [2] was > 100 µM and the TGI [9] was > 100 µM. For the same compound, the TGI [3] was > 100 µM, the TGI [4] was > 100 µM and the TGI [6] was > 100 µM.

For `CC(=O)NNc1nc(C)c(C(=O)/C=C/c2ccccc2Cl)s1`, the TGI [1] was > 100 µM, the TGI [8] was > 100 µM and the TGI [2] was > 100 µM. The TGI [9] was > 100 µM, the TGI [3] was > 100 µM and the TGI [4] was > 100 µM. The TGI [5] was > 100 µM.

With `O=C1NC2(CCCCCC2)C2CCCCCCC12O` (stereo not drawn) the TGI [1] was > 100 µM, the TGI [8] was > 100 µM and the TGI [2] was > 100 µM. The TGI [9] was > 100 µM, the TGI [4] was > 100 µM and the TGI [6] was > 100 µM.

For `Cc1cc2c(C)nn(Cc3ccccc3)c2c(C(N)=O)c1C`, the TGI [1] was > 100 µM, the TGI [8] was > 100 µM and the TGI [2] was > 100 µM. For the same compound, the TGI [3] was > 100 µM, the TGI [4] was > 100 µM and the TGI [6] was > 100 µM.

For `Cc1cc(NCCCCCCNc2cc(C)nc3cc(N(C)C)ccc23)c2ccc(N(C)C)cc2n1`, the TGI [1] was > 100 µM, the TGI [2] was 29.5 µM and the TGI [4] was > 100 µM. The TGI [5] was > 100 µM and the TGI [6] was 59 µM.

`O=C(O)C1OC1(c1cccc(Cl)c1)c1ccccc1Cl` (stereo not drawn) was tested, and the TGI [7] was 65.6 µM.

With `O=C(CC(=O)C1=CNc2ccccc2S1)C(=O)Nc1ccc(Cl)cc1` the TGI [1] was > 50 µM, the TGI [8] was > 50 µM and the TGI [2] was > 50 µM. The TGI [3] was > 50 µM, the TGI [4] was > 50 µM and the TGI [5] was > 50 µM. The TGI [6] was > 50 µM.

With `COc1ccc2c(c1)[n+]([O-])c(-c1ccc(OC)c(OC)c1)c(N)[n+]2[O-]` the TGI [1] was > 100 µM, the TGI [8] was > 100 µM and the TGI [2] was > 100 µM. The TGI [9] was > 100 µM, the TGI [3] was > 100 µM and the TGI [4] was > 100 µM. For the same compound, the TGI [6] was > 100 µM.

`COc1ccc2c(=O)cc(-c3ccncc3)oc2c1OC` was tested, and the TGI [7] was 98.9 µM.

For `COc1cc2ccccc2oc1=O`, the TGI [7] was > 100 µM.

`O=c1c2ccccc2c(=O)n2n1CC=CC2` was tested, and the TGI [1] was > 100 µM, the TGI [8] was > 100 µM and the TGI [2] was > 100 µM. The TGI [9] was > 100 µM, the TGI [3] was > 100 µM and the TGI [4] was > 100 µM.

With `O=[N+]([O-])c1ccc2c(c1)Cc1cc(N=Cc3ccc4c(c3)OCO4)ccc1-2` the TGI [7] was > 100 µM.

In the case of `Clc1ccc(N=Nc2nc3ccccc3nc2N=Nc2ccc(Cl)cc2Cl)c(Cl)c1`, the TGI [1] was > 100 µM, the TGI [8] was > 100 µM and the TGI [3] was > 100 µM. For the same compound, the TGI [4] was > 100 µM and the TGI [6] was > 100 µM.

With `CCN(CC)CCOc1ccc(CCc2cc(OC)c(OC)c(OC)c2)cc1` the TGI [1] was > 100 µM, the TGI [8] was 73.8 µM and the TGI [2] was 35.8 µM. For the same compound, the TGI [9] was > 100 µM, the TGI [3] was > 100 µM and the TGI [4] was 53.8 µM. The TGI [5] was > 100 µM and the TGI [6] was 57.7 µM.

`COc1cc([C@@H]2c3cc4c(cc3[C@@H](OC(=O)c3ccc(N)cc3)C3COC(=O)[C@@H]32)OCO4)cc(OC)c1O` (stereo partly drawn) was tested, and the TGI [1] was > 95 µM, the TGI [2] was 61.9 µM and the TGI [9] was > 95 µM. The TGI [3] was 3.57 µM, the TGI [4] was > 95 µM and the TGI [5] was 42 µM.

`O=C1C2C3C=C4c5ccccc5N(c5ccccc5)C4(C2C(=O)N1c1ccc(Cl)cc1)[C@H]1C(=O)N(c2ccc(Cl)cc2)C(=O)[C@@H]31` (stereo partly drawn) was tested, and the TGI [1] was > 100 µM, the TGI [8] was > 100 µM and the TGI [2] was > 100 µM. For the same compound, the TGI [9] was > 100 µM, the TGI [3] was > 100 µM and the TGI [4] was > 100 µM. The TGI [5] was > 100 µM and the TGI [6] was > 100 µM.

For `c1ccc(C(c2ccccc2)c2cccnc2)cc1`, the TGI [1] was > 100 µM, the TGI [8] was > 100 µM and the TGI [2] was > 100 µM. For the same compound, the TGI [9] was > 100 µM, the TGI [3] was > 100 µM and the TGI [4] was > 100 µM. For the same compound, the TGI [5] was > 100 µM.

For `COC(=O)/C(=N\NC(=O)C[N+](C)(C)C)C(C(=O)OC)C(=O)C(=O)Nc1ccccc1C(N)=O` (stereo not drawn), the TGI [1] was > 100 µM, the TGI [2] was > 100 µM and the TGI [9] was > 100 µM. For the same compound, the TGI [3] was > 100 µM and the TGI [4] was > 100 µM.

With `O=C(NC(=O)c1cn(CCN(CCO)C(=O)NCCCCCCNC(=O)N(CCO)CCn2cc(C(=O)NC(=O)OCc3ccccc3)c(=O)[nH]c2=O)c(=O)[nH]c1=O)OCc1ccccc1` the TGI [1] was > 100 µM, the TGI [8] was > 100 µM and the TGI [2] was > 100 µM. The TGI [9] was > 100 µM, the TGI [3] was > 100 µM and the TGI [4] was > 100 µM. The TGI [5] was > 100 µM and the TGI [6] was > 100 µM.

For `COc1cc(NC(C)CCCN)c2ncccc2c1` (stereo not drawn), the TGI [1] was > 100 µM, the TGI [8] was > 89 µM and the TGI [2] was > 100 µM. For the same compound, the TGI [9] was > 100 µM, the TGI [3] was > 100 µM and the TGI [4] was > 100 µM. For the same compound, the TGI [7] was > 82.1 µM, the TGI [5] was > 100 µM and the TGI [6] was 73.2 µM.

With `COc1c(O)cc2oc(-c3ccc(O)cc3)cc(=O)c2c1O` the TGI [7] was > 100 µM.

With `COC1/C=C/C(C)C(C(C)C(OC)C(C)CCC(=O)C(C)C(C/C=C/N(C)C=O)OC)OC(=O)/C=C/C=C(\C)CC(OC)CC2=CC(=O)O[C@H](C2)C(C)C(OC)CC(OC)/C=C/C(C)C(OC)C1` (stereo partly drawn) the GI50 [7] was 0.0472 µM and the TGI [7] was 1.11 µM.

`CC(=O)C(=Cc1ccc(C=C(C(C)=O)C(C)=O)cc1)C(C)=O` showed a TGI [7] of 5.94 µM.

In the case of `Cc1ccc(SSc2ccc(C)cc2C(=O)O)c(C(=O)O)c1`, the TGI [1] was > 100 µM, the TGI [2] was > 100 µM and the TGI [3] was > 100 µM. For the same compound, the TGI [4] was > 100 µM and the TGI [5] was > 100 µM.

For `CC1OC(OC2C[C@](O)(C(=O)CF)Cc3c(O)c4c(c(O)c32)C(=O)c2ccccc2C4=O)CC(N)C1O` (stereo partly drawn), the TGI [1] was 0.333 µM, the TGI [8] was 0.142 µM and the TGI [2] was 0.104 µM. It also gave a TGI [3] of 0.353 µM, a TGI [4] of 0.248 µM and a TGI [7] of 0.333 µM. It also gave a TGI [6] of 0.389 µM.

With `N.N.N.N.N.[Cl-].[Co+3].c1ccc(-c2nn[n-]n2)cc1` the GI50 [1] was > 100 µM, the TGI [1] was > 100 µM and the GI50 [2] was > 100 µM. The TGI [2] was > 100 µM, the GI50 [9] was 93.1 µM and the TGI [9] was > 100 µM. For the same compound, the GI50 [3] was > 100 µM and the TGI [3] was > 100 µM.
